In one test the target is PI3K (p110α/p85α) (Homo sapiens (Human), UniProt P42336). Briefly: PI3K HTRF enzyme assay, p110α/p85α. The settings on record: read-out: % inhibition @ 500 nM p110α; compound at 500 nM, 10 μM ATP. The format is biochemical. As to the method:
Recombinant PI3K (p110α/p85α) and PI3K (p110β/p85α) were from Millipore. […] Briefly, the compounds of interest dissolved in 100% DMSO were dispensed in all wells, following which the mixture of PIP2 and enzyme was added. PI3K (p110α/p85α) and PI3K (p110β/p85α) enzyme reactions were initiated in the presence of 10 μM and 100 μM ATP, respectively, and incubated for 30 min at room temperature. STOP solution prepared 2 hours prior to use was added to stop reactions, and mixed well. Detection solution prepared 2 hours prior to use was added, and incubated at room temperature for 17 hours in the dark. […] HTRF ration was calculated as follows: […]
On the technique in general: TR-FRET usually uses a lanthanide donor and a delayed reading to cut background.

The target in a further test is recombinant mTOR (Homo sapiens (Human), UniProt P42345). The experiment in a line: mTOR kinase assay (33P incorporation into 4EBP1). The format is biochemical. As to conditions: compound at 10 μM, 10 μM ATP. In outline: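 Recombinant human mTOR (50 ng) phosphorylated His-tagged 4EBP1 (300 ng) with 10 μM ATP plus [γ-33P]-ATP in HEPES pH 7.5, MnCl2, EGTA and DTT for 30 min at 30° C. Labelled 4EBP1 was filter-captured and counted. IC50 was derived from eight-point duplicate dilution series.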

For orientation: inhibition means the drop in the measured response relative to a control, in per cent.

recombinant mTOR, sequence (P42345 1360-2549): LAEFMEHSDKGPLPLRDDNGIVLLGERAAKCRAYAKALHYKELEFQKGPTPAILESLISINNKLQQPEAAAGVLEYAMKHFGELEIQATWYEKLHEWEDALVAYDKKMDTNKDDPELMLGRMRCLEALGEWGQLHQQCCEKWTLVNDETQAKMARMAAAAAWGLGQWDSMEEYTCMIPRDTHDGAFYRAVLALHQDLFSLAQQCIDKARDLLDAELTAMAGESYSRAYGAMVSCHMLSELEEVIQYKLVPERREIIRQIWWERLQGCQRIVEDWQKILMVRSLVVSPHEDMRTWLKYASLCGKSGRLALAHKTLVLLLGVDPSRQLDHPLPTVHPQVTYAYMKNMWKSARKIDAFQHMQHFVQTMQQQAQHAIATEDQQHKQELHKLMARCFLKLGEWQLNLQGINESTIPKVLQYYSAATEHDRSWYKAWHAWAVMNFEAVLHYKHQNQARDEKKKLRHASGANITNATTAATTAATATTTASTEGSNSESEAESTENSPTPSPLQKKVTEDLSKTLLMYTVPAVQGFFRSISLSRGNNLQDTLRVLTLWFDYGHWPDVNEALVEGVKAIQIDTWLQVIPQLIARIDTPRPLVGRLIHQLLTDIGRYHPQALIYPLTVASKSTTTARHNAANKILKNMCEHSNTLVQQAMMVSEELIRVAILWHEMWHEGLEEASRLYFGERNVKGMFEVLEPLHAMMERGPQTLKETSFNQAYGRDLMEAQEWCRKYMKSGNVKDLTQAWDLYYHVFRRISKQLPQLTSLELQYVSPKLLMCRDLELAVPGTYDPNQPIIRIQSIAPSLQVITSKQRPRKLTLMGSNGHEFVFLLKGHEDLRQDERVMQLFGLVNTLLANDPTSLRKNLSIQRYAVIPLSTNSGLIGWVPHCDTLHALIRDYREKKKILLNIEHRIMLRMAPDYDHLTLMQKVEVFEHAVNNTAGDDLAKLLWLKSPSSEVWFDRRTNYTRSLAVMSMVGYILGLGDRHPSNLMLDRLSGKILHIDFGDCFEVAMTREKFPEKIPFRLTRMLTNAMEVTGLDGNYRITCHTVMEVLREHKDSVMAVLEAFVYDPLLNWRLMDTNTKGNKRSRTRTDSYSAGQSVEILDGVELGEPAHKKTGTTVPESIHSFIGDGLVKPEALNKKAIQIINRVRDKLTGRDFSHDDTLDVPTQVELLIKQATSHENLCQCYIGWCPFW
PI3K (p110α/p85α), sequence (P42336 whole entry, species assumed): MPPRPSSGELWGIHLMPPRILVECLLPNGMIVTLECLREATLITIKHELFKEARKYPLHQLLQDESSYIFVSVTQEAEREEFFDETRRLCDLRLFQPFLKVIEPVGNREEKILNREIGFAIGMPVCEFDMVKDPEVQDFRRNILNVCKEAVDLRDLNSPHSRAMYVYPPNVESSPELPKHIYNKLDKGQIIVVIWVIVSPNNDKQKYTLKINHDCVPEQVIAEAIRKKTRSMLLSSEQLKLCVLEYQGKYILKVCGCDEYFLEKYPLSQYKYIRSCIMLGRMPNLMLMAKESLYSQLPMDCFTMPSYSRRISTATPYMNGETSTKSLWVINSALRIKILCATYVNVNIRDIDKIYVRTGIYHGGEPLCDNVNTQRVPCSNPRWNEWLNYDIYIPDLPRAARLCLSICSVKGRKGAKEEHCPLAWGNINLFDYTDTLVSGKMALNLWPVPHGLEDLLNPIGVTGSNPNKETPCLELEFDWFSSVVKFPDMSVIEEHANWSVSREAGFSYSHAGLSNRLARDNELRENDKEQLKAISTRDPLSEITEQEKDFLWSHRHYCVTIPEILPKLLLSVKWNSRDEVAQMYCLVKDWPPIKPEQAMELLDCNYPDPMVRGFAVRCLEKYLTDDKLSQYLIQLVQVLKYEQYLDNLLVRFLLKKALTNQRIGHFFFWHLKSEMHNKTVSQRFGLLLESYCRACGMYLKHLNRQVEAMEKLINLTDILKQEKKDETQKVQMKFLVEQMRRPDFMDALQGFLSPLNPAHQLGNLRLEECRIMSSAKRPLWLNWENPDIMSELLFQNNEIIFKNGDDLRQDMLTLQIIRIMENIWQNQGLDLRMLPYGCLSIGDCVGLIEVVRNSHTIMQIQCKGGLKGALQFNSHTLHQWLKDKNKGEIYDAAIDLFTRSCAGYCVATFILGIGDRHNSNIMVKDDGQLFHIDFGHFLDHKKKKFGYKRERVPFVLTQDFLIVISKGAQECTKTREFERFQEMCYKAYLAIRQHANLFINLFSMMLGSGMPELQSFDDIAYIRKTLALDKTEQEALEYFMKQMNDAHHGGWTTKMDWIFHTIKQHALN
PI3K (p110α/p85α), sequence (P27986 whole entry partner, species assumed): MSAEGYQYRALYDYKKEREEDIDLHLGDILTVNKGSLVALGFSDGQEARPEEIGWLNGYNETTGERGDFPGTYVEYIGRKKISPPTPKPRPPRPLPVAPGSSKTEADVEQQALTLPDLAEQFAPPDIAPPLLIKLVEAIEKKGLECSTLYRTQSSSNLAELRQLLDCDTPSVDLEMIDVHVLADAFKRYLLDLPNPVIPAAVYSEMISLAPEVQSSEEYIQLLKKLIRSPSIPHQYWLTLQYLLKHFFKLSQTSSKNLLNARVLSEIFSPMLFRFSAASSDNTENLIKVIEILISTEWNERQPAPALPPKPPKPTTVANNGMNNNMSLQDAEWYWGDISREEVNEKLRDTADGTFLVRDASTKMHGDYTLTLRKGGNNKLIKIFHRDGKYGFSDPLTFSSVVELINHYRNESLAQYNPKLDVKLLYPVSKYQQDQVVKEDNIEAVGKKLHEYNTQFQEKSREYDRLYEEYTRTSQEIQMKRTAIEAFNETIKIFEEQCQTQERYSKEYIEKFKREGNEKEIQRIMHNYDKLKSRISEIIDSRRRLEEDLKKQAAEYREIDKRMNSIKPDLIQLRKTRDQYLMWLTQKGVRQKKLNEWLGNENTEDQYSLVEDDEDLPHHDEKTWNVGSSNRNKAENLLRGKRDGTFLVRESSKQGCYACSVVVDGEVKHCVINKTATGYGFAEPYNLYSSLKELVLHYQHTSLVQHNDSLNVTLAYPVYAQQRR

`CSc1c(Cl)nc(-c2ccc(NC(=O)Nc3ccc(N4CCN(C)CC4)nc3)cc2)nc1N1CCOCC1` [MTR-0236, 1-[4-(4-Chloro-5-methylsulfanyl-6-morpholin-4-yl-pyrimidin-2-yl)-phenyl]-3-[6-(4-methyl-piperazin-1-yl)-pyridin-3-yl]-urea]: the inhibition at 0.5 µM on PI3K (p110α/p85α) amounted to 61.2%. On the same count and under the same terms, with `CSc1cnc(-c2ccc(NC(=O)Nc3ccc(N4CCOCC4)c(F)c3)cc2)nc1N1CCOCC1` [MTR-0226, 1-(3-Fluoro-4-morpholin-4-yl-phenyl)-3-[4-(5-methylsulfanyl-4-morpholin-4-yl-pyrimidin-2-yl)-phenyl]-urea] the figure was 45.7%; with `CSc1cnc(-c2ccc(NC(=O)Nc3cccnc3)cc2)nc1N1CCOCC1` [MTR-0225, 1-[4-(5-Methylsulfanyl-4-morpholin-4-yl-pyrimidin-2-yl)-phenyl]-3-pyridin-3-yl-urea], 43.8%. For `O=C(Nc1ccc(-c2ncc(OCCN3CCOCC3)c(N3CCOCC3)n2)cc1)Nc1ccc(N2CCOCC2=O)cc1` [MTR-0455, 1-{4-[4-Morpholin-4-yl-5-(2-morpholin-4-yl-ethoxy)-pyrimidin-2-yl]-phenyl}-3-[4-(3-oxo-morpholin-4-yl)-phenyl]-urea], the inhibition at 0.5 µM at PI3K (p110α/p85α) was 48.9%. For the molecule `CCOC(=O)c1nc(-c2ccc(NC(=O)Nc3ccccc3)cc2)nc(N2CCOCC2)c1OCC` [MTR-0069, 5-Ethoxy-6-morpholin-4-yl-2-[4-(3-phenyl-ureido)-phenyl]-pyrimidine-4-carboxylic acid ethyl ester], on PI3K (p110α/p85α), the inhibition at 0.5 µM is 53.8%. Same read-out and setting: with `CSc1c(Cl)nc(-c2ccc(NC(=O)Nc3ccc(C(=O)N4CCC(N(C)C)CC4)cc3)cc2)nc1N1CCOCC1` [MTR-0436, 1-[4-(4-Chloro-5-methylsulfanyl-6-morpholin-4-yl-pyrimidin-2-yl)-phenyl]-3-[4-(4-dimethylamino-piperidine-1-carbonyl)-phenyl]-urea] the figure was 71.5%; with `CCOC(=O)c1nc(-c2ccc(NC(=O)Nc3ccc(NC(C)=O)cc3)cc2)nc(N2CCOCC2)c1OCC` [MTR-0370, 2-{4-[3-(4-Acetylamino-phenyl)-ureido]-phenyl}-5-ethoxy-6-morpholin-4-yl-pyrimidine-4-carboxylic acid ethyl ester], 61.8%. Still for that read-out and setting: with `CSc1cnc(-c2ccc(NC(=O)Nc3ccc(NC(C)=O)cc3)cc2)nc1N1CCOCC1` [MTR-0380, N-(4-{3-[4-(5-Methylsulfanyl-4-morpholin-4-yl-pyrimidin-2-yl)-phenyl]-ureido}-phenyl)-acetamide] the figure was 101%. Take `CSc1c(Cl)nc(-c2ccc(NC(=O)Nc3ccc(C(=O)N4CCOCC4)cc3)cc2)nc1N1CCOCC1` [MTR-0308, 1-[4-(4-Chloro-5-methylsulfanyl-6-morpholin-4-yl-pyrimidin-2-yl)-phenyl]-3-[4-(morpholine-4-carbonyl)-phenyl]-urea]: the inhibition at 0.5 µM on PI3K (p110α/p85α) stood at 106%. In the case of `COc1cnc(-c2ccc(NC(=O)Nc3ccc(C(N)=O)cc3)c(F)c2)nc1N1CCOCC1` [MTR-0385, 4-{3-[2-Fluoro-4-(5-methoxy-4-morpholin-4-yl-pyrimidin-2-yl)-phenyl]-ureido}-benzamide], on PI3K (p110α/p85α), the inhibition at 0.5 µM is 64%. Turning to `CSc1c(Cl)nc(-c2ccc(NC(=O)Nc3ccc(N4CCOCC4)nc3)cc2)nc1N1CCOCC1` [MTR-0237, 1-[4-(4-Chloro-5-methylsulfanyl-6-morpholin-4-yl-pyrimidin-2-yl)-phenyl]-3-(6-morpholin-4-yl-pyridin-3-yl)-urea], the inhibition at 10 µM on recombinant mTOR came to 85%. With `CSc1c(Cl)nc(-c2ccc(NC(=O)Nc3ccc(Cl)nc3)cc2)nc1N1CCOCC1` [MTR-0077, 1-[4-(4-Chloro-5-methylsulfanyl-6-morpholin-4-yl-pyrimidin-2-yl)-phenyl]-3-(6-chloro-pyridin-3-yl)-urea], the inhibition at 10 µM on recombinant mTOR was 87%. Same read-out and setting: with `CSc1cnc(-c2ccc(NC(=O)Nc3ccc(N4CCN(C)CC4)cn3)cc2)nc1N1CCOCC1` [MTR-0318, 1-[5-(4-Methyl-piperazin-1-yl)-pyridin-2-yl]-3-[4-(5-methylsulfanyl-4-morpholin-4-yl-pyrimidin-2-yl)-phenyl]-urea] the figure was 91%; with `COc1cnc(-c2ccc(NC(N)=O)cc2)nc1N1CCOCC1` [MTR-0336, [4-(5-Methoxy-4-morpholin-4-yl-pyrimidin-2-yl)-phenyl]-urea], 89%; with `CSc1c(Cl)nc(-c2ccc(NC(=O)Nc3ccc(S(N)(=O)=O)cc3)c(F)c2)nc1N1CCOCC1` [MTR-0410, 4-{3-[4-(4-Chloro-5-methylsulfanyl-6-morpholin-4-yl-pyrimidin-2-yl)-2-fluoro-phenyl]-ureido}-benzenesulfonamide], 85%. The same measure, in the same setting: with `CCOc1cnc(-c2ccc(NC(=O)Nc3ccc(N4CCSCC4)cc3)cc2)nc1N1CCOCC1` [MTR-0324, 1-[4-(5-Ethoxy-4-morpholin-4-yl-pyrimidin-2-yl)-phenyl]-3-(4-thiomorpholin-4-yl-phenyl)-urea] the figure was 81%; with `CSc1cnc(-c2ccc(NC(=O)Nc3ccc4[nH]c(=O)oc4c3)cc2)nc1N1CCOCC1` [MTR-0459, 1-[4-(5-Methylsulfanyl-4-morpholin-4-yl-pyrimidin-2-yl)-phenyl]-3-(2-oxo-2,3-dihydro-benzooxazol-6-yl)-urea], 88%. The same measure, in the same setting: with `CCOc1c(-c2ccncc2)nc(-c2ccc(NC(=O)Nc3cccnc3)cc2)nc1N1CCOCC1` [MTR-0493, 1-[4-(5-Ethoxy-4-morpholin-4-yl-6-pyridin-4-yl-pyrimidin-2-yl)-phenyl]-3-pyridin-3-yl-urea] the figure was 99%. Turning to `CSc1c(-c2ccncc2)nc(-c2ccc(NC(=S)Nc3ccccc3)cc2)nc1N1CCOCC1` [MTR-0468, 1-[4-(5-Methylsulfanyl-4-morpholin-4-yl-6-pyridin-4-yl-pyrimidin-2-yl)-phenyl]-3-phenyl-thiourea], the inhibition at 10 µM at recombinant mTOR was 97%. With `CSc1c(-c2ccncc2)nc(-c2ccc(N)cc2)nc1N1CCOCC1` [MTR-0360, 4-(5-Methylsulfanyl-4-morpholin-4-yl-6-pyridin-4-yl-pyrimidin-2-yl)-phenylamine], the inhibition at 10 µM at recombinant mTOR came to 95%.

For `COc1cnc(-c2ccc(NC(=S)Nc3ccc(N4CCOCC4=O)cc3)cc2)nc1N1CCOCC1` [MTR-0335, 1-[4-(5-Methoxy-4-morpholin-4-yl-pyrimidin-2-yl)-phenyl]-3-[4-(3-oxo-morpholin-4-yl)-phenyl]-thiourea], the inhibition at 10 µM at recombinant mTOR was 89%.

In the case of `CSc1c(-c2ccncc2)nc(-c2ccc(NC(=O)NC(C)C)cc2)nc1N1CCOCC1` [MTR-0479, 1-Isopropyl-3-[4-(5-methylsulfanyl-4-morpholin-4-yl-6-pyridin-4-yl-pyrimidin-2-yl)-phenyl]-urea], on recombinant mTOR, the inhibition at 10 µM came out at 95%. With `CSc1cnc(-c2ccc(NC(=O)Nc3ccc4c(c3)OCO4)cc2)nc1N1CCOCC1` [MTR-0317, 1-Benzo[1,3]dioxol-5-yl-3-[4-(5-methylsulfanyl-4-morpholin-4-yl-pyrimidin-2-yl)-phenyl]-urea], the inhibition at 10 µM on recombinant mTOR turned out to be 93%. As for `COc1c(-c2ccc(N)cc2)nc(-c2ccc(N)cc2)nc1N1CCOCC1` [MTR-0483], at recombinant mTOR, the “% Inhibition @ 10 μM” value is 88%.

Take `CS(=O)(=O)c1cnc(-c2ccc(NC(=O)Nc3ccc(N4CCOCC4=O)cc3)cc2)nc1N1CCOCC1` [MTR-0381, 1-[4-(5-Methanesulfonyl-4-morpholin-4-yl-pyrimidin-2-yl)-phenyl]-3-[4-(3-oxo-morpholin-4-yl)-phenyl]-urea]: the inhibition at 10 µM at recombinant mTOR came out at 92%.
